Laboratory results: patent US20180071317A1, “USE OF AGENTS THAT ALTER THE PERITUMORAL ENVIRONMENT FOR THE TREATMENT OF CANCER” (SERVICIO ANDALUZ DE SALUD, priority 2011, published 2018)

Legend:
[1] = test system: fibroblasts (PHF) co-cultured with tumor cells of human Edwing sarcoma (MHH-ES-1); experiment: Marker expression (IHC) in PHF co-cultured with MHH-ES-1 tumor cells; type: cell-based; conditions: PHF co-cultured with MHH-ES-1 + SP + NK1 antagonist
Method: (§1) All cultures were maintained 48 hours, following which the same cells were included in paraffin blocks for subsequent analysis of the expression of different markers by immunohistochemistry (see Example 1). […] All experiments were carried out sixfold. Analyzed markers in fibroblast cells (stromal cells) were: TGF-α, TGF-β1, TGF-β2, TGF-β3, SPARC, MMP-3, MMP-7, MMP-9, MMP-11, MMP-13 and MMP-14.

[2] = test system: fibroblasts (PHF) co-cultured with tumor cells of lung carcinoma (A-427); experiment: Marker expression (IHC) in PHF co-cultured with A-427 tumor cells; type: cell-based, human; conditions: co-culture with A-427 lung carcinoma; SP 1 μM + antagonist 1 μM; 48 h;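 also: cultures grown in human blood plasma from a healthy donor, value is the percentage of fibroblasts positive for each marker, six replicates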
Method: as §1

[3] = test system: fibroblasts (PHF) co-cultured with tumor cells, thyroid carcinoma (reference A-427); experiment: Marker expression (IHC) in PHF co-cultured with thyroid carcinoma tumor cells; type: cell-based, human; conditions: co-culture with thyroid carcinoma cells; SP 1 μM + antagonist 1 μM; 48 h;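 also: grown in fresh plasma from a healthy human donor, read-out is percent of fibroblasts positive for each marker, compared with fibroblasts cultured alone, run in six replicates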
Method: as §1

[4] = test system: fibroblasts (PHF) co-cultured with tumor cells, thyroid carcinoma; experiment: as above; type: cell-based, human; conditions: co-culture with thyroid carcinoma cells; SP 1 μM + antagonist 1 μM; 48 h
Method: as §1

[5] = test system: tumors from the tumor cell lines of Table 9; experiment: Mean tumor volume in nude mice injected subcutaneously with human tumor cells; conditions: 30 mg/kg/day oral, 7 days
[6] = test system: fibroblasts (PHF) co-cultured with tumor cells of human breast carcinoma (MCF-7); experiment: Marker expression (IHC) in PHF co-cultured with MCF-7 tumor cells; type: cell-based; conditions: co-culture with MCF-7; SP 1 μM + antagonist 1 μM; 48 h;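 also: value is the percentage of fibroblasts positive for each marker, with fibroblasts cultured alone as reference, grown in fresh plasma from a healthy donor, six replicates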
Method: as §1

[7] = test system: human primary fibroblasts (PHF); experiment: Marker expression (immunohistochemistry) in human primary fibroblasts with SP alone or with NK1 antagonists; type: cell-based; conditions: SP 1 μM + antagonist 1 μM; 48 h;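 also: primary human dermal fibroblasts, immunostained with rabbit polyclonal antibodies against each marker, value is percentage of stained cells among all cells counted in 20 fields at 400× per section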
Method: These PHF were obtained and purified from samples obtained from the dermis of the skin of healthy volunteers as described in De Bari et al (De Bari et al. 2001). Briefly, small pieces of skin dermis were digested in a solution of hyaluronidase (Sigma-Aldrich, USA) at a concentration of 1 mg/ml for 15 minutes at 37° C. and then treated with 6 mg/ml collagenase type IV (Invitrogen) for 2 hours at 37° C. Then, the cells were washed, resuspended in DMEM culture medium with high glucose (Dulbecco's Modified Eagle's Medium, Invitrogen) supplemented with 1% antibiotic-antimycotic (Invitrogen) and 1% pyruvate Sodium (Invitrogen), and seeded in culture dishes at a concentration of 10,000 cells per square centimeter. When the cells reached confluence, adherent cells were detached using 0.5% sterile trypsin (Invitrogen) and used between passages 3 and 9. For tests shown below, the PHF were plated in 24-well plates at a concentration of 25,000 cells per well.
After 48 hours of culture, cells were harvested and paraffin cell-blocks for immunohistochemical analysis were constructed, as previously explained in Example 1.
In immunohistochemical assays the expression of the following markers were studied: TGFα (SAB4502953), TGF1 (SAB4502954), TGFβ2 (SAB4502956), TGFβ3 (SAB4502957), SPARC (HPA002989), MMP-3 (HPA007875) MMP-7 (SAB4501894), MMP-9 (SAB4501896), MMP-11 (SAB4501898), MMP-13 (SAB4501900) and MMP-14 (SAB4501901) using specific antibodies against them. All antibodies used were rabbit polyclonal antibodies obtained from Sigma-Aldrich and were used at a concentration of 1/1000. All experiments were carried out sixfold.
On each of the six sections cell counts were performed in 20 high power fields (400×) through an Olympus microscope (model CX31) to assess the immunostaining. On each of the fields total cell number and number of cells displaying immunostaining were counted, being then the percentage of cells displaying said immunostaining.

[8] = test system: fibroblasts (PHF) co-cultivated with tumor cell carcinoma of urinary bladder (5637); experiment: Marker expression (IHC) in PHF co-cultured with 5637 tumor cells; type: cell-based, human; conditions: co-culture with 5637; SP 1 μM + antagonist 1 μM; 48 h
Method: as §1

[9] = test system: fibroblasts (PHF) co-cultured with tumor cells of human colon adenocarcinoma (SW-403); experiment: Marker expression (IHC) in PHF co-cultured with SW-403 tumor cells; type: cell-based; conditions: co-culture with SW-403; SP 1 μM + antagonist 1 μM; 48 h

## CC(=O)N1CCN([C@H]2CCN(C(=O)N(C)[C@H](C)c3cc(C(F)(F)F)cc(C(F)(F)F)c3)[C@@H](c3ccc(F)cc3C)C2)CC1 [Casopitant]
[1]
  cells expressing MMP-3: 0%
  cells expressing MMP-7: 0%
  cells expressing MMP-9: 0%
  cells expressing MMP-11: 0%
  cells expressing MMP-13: 0%
  cells expressing MMP-14: 0%
  cells expressing SPARC: 0%
  cells expressing TGF-α: 0%
  cells expressing TGF-β1: 0%
  cells expressing TGF-β2: 0%
  cells expressing TGF-β3: 0%
[2]
  PHF cells expressing MMP-3: 0%
  PHF cells expressing MMP-7: 0%
  PHF cells expressing MMP-9: 0%
  PHF cells expressing MMP-11: 0%
  PHF cells expressing MMP-13: 0%
  PHF cells expressing MMP-14: 0%
  PHF cells expressing SPARC: 0%
  PHF cells expressing TGF-α: 0%
  PHF cells expressing TGF-β1: 0%
  PHF cells expressing TGF-β2: 0%
  PHF cells expressing TGF-β3: 0%
[3]
  PHF cells expressing MMP-3: 0%
  PHF cells expressing MMP-7: 0%
  PHF cells expressing MMP-9: 0%
  PHF cells expressing MMP-13: 0%
  PHF cells expressing MMP-14: 0%
  PHF cells expressing SPARC: 0%
  PHF cells expressing TGF-α: 0%
  PHF cells expressing TGF-β1: 0%
  PHF cells expressing TGF-β2: 0%
  PHF cells expressing TGF-β3: 0%
[4]
  PHF cells expressing MMP-11: 0%
[5]; B lymphoblastic leukemia (peripheral human B lymphoblastoid cells) SD1
  Mean tumor volume: 109 ± 8
[5]; Carcinoma of human non-small cell lung COR-L23
  Mean tumor volume: 119 ± 5
[5]; Carcinoma of human non-small cell lung H-1963
  Mean tumor volume: 97 ± 3
[5]; Carcinoma of human non-small cell lung HCC-44
  Mean tumor volume: 101 ± 8
[5]; Carcinoma of human small cell lung H-209
  Mean tumor volume: 114 ± 7
[5]; Carcinoma of human urinary bladder 5637
  Mean tumor volume: 100 ± 2
[5]; Human B lymphoma BC-1
  Mean tumor volume: 83 ± 11
[5]; Human Burkitt lymphoma CA-46
  Mean tumor volume: 94 ± 9
[5]; Human Fibrosarcoma HT-1080
  Mean tumor volume: 89 ± 4
[5]; Human Hodgkin lymphoma KM-H2
  Mean tumor volume: 86 ± 7
[5]; Human Rhabdomyosarcoma A-204
  Mean tumor volume: 98 ± 5
[5]; Human T-cell leukemia/NK YT
  Mean tumor volume: 102 ± 7
[5]; Human T-lymphoma DERL human Hodgkin 7Linfoma KM-H2
  Mean tumor volume: 97 ± 6
[5]; Human breast adenocarcinoma humano MCF-7
  Mean tumor volume: 86 ± 8
[5]; Human breast carcinoma MDA-MB-468
  Mean tumor volume: 77 ± 9
[5]; Human breast carcinoma MT-3
  Mean tumor volume: 87 ± 12
[5]; Human choriocarcinoma AC-1M32
  Mean tumor volume: 84 ± 1
[5]; Human colon carcinoma SW-403
  Mean tumor volume: 78 ± 7
[5]; Human endometrial carcinoma AN3-CA
  Mean tumor volume: 82 ± 3
[5]; Human endometrial stromal sarcoma ESS-1
  Mean tumor volume: 101 ± 5
[5]; Human folicular thyroid carcinoma TT2609-C02
  Mean tumor volume: 112 ± 5
[5]; Human gastric adenocarcinoma 23132/87
  Mean tumor volume: 83 ± 4
[5]; Human glioma GAMG
  Mean tumor volume: 102 ± 4
[5]; Human lung carcinoma A-427
  Mean tumor volume: 102 ± 8
[5]; Human lung carcinoma DV-90
  Mean tumor volume: 99 ± 5
[5]; Human lymphoblastic leukemia T BE-13
  Mean tumor volume: 101 ± 4
[5]; Human malignant fibrous histiocytoma U-2197
  Mean tumor volume: 107 ± 2
[5]; Human melanoma MEL HO
  Mean tumor volume: 102 ± 9
[5]; Human multiple myeloma COLO-677
  Mean tumor volume: 104 ± 6
[5]; Human neuroblastoma KELLY
  Mean tumor volume: 112 ± 5
[5]; Human neuroblastoma bone marrow SKN-BE 2
  Mean tumor volume: 103 ± 4
[5]; Human osteosarcoma CAL-72
  Mean tumor volume: 106 ± 7
[5]; Human ovarian adenocarcinoma EFO-27
  Mean tumor volume: 88 ± 6
[5]; Human ovarian carcinoma COLO-704
  Mean tumor volume: 97 ± 6
[5]; Human pancretic adenocarcinoma CAPAN-1
  Mean tumor volume: 73 ± 8
[5]; Human pancretic adenocarcinoma PA-TU 8902
  Mean tumor volume: 75 ± 6
[5]; Human papillary thyroid carcinoma metastasizing B-CPAP
  Mean tumor volume: 106 ± 4
[5]; Human prostate carcinoma 22RV1
  Mean tumor volume: 98 ± 4
[5]; Human retinoblastoma WERI-Rb-1
  Mean tumor volume: 101 ± 5
[5]; Human thyroid carcinoma 8505C
  Mean tumor volume: 99 ± 9
[5]; Human uterine cervix carcinoma KB
  Mean tumor volume: 112 ± 1
[5]; Melanoma humano, metástasis en ganglio linfático COLO 858
  Mean tumor volume: 99 ± 5
[5]; Sarcoma human Edwing MHH-ES-1
  Mean tumor volume: 97 ± 9
[5]; Transitional Carcinoma of human urinary bladder RT-4
  Mean tumor volume: 101 ± 3
[6]
  PHF cells expressing MMP-3: 0%
  PHF cells expressing MMP-7: 0%
  PHF cells expressing MMP-9: 0%
  PHF cells expressing MMP-11: 0%
  PHF cells expressing MMP-13: 0%
  PHF cells expressing MMP-14: 0%
  PHF cells expressing SPARC: 0%
  PHF cells expressing TGF-α: 0%
  PHF cells expressing TGF-β1: 0%
  PHF cells expressing TGF-β2: 0%
  PHF cells expressing TGF-β3: 0%
[7]
  PHF cells expressing MMP-3: 0%
  PHF cells expressing MMP-7: 0%
  PHF cells expressing MMP-9: 0%
  PHF cells expressing MMP-11: 0%
  PHF cells expressing MMP-13: 0%
  PHF cells expressing MMP-14: 0%
  PHF cells expressing SPARC: 0%
  PHF cells expressing TGFα: 0%
  PHF cells expressing TGFβ 1: 0%
  PHF cells expressing TGFβ 2: 0%
  PHF cells expressing TGFβ 3: 0%
[8]
  PHF cells expressing MMP-3: 0%
  PHF cells expressing MMP-7: 0%
  PHF cells expressing MMP-9: 0%
  PHF cells expressing MMP-11: 0%
  PHF cells expressing MMP-13: 0%
  PHF cells expressing MMP-14: 0%
  PHF cells expressing SPARC: 0%
  PHF cells expressing TGF-α: 0%
  PHF cells expressing TGF-β1: 0%
  PHF cells expressing TGF-β2: 0%
  PHF cells expressing TGF-β3: 0%
[9]
  PHF cells expressing MMP-3: 0%
  PHF cells expressing MMP-7: 0%
  PHF cells expressing MMP-9: 0%
  PHF cells expressing MMP-11: 0%
  PHF cells expressing MMP-13: 0%
  PHF cells expressing MMP-14: 0%
  PHF cells expressing SPARC: 0%
  PHF cells expressing TGF-α: 0%
  PHF cells expressing TGF-β1: 0%
  PHF cells expressing TGF-β2: 0%
  PHF cells expressing TGF-β3: 0%
